Results on 17 compounds are retold here after BindingDB's records for doi:10.1016/s0968-0896(99)00306-5 (University of Bologna, 2000).

Where only a bound is given, the exact number is not on record here.

In assay [1] the target is Acetylcholinesterase (Homo sapiens, UniProt P22303). Briefly: Cholinesterase Inhibition Assay. As to the method: (§1) The cholinesterase assays were performed using colorimetric method reported by Ellman. The absorbance changes at 412 nm were recorded for 5 min with a Jasco Uvidec-610 double beam Spectrophotometer. The reaction rates were compared and the percent inhibition due to the presence of test compounds was calculated. Inhibition curve was obtained for each compound.
Chain of Acetylcholinesterase (P22303 whole entry): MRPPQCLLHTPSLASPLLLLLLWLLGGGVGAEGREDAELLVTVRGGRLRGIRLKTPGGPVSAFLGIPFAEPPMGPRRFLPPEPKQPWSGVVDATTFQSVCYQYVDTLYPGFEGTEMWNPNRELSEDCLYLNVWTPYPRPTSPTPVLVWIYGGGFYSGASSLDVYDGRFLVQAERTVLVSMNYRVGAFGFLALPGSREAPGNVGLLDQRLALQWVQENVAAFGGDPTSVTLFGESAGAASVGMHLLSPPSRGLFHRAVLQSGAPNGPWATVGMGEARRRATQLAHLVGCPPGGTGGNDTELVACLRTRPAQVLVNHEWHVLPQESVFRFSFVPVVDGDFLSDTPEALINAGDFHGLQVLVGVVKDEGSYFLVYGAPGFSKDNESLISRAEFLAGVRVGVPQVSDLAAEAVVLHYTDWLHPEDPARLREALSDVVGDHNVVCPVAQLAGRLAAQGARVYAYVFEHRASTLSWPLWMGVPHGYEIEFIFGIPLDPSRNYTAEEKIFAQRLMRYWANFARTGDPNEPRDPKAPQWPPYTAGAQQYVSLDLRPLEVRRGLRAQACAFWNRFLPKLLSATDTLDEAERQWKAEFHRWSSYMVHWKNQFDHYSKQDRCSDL

In assay [2] the target is Cholinesterase (Homo sapiens, UniProt P06276). Briefly: Cholinesterase Inhibition Assay. As to conditions: pH 8; 37 °C. As to the method: as §1
Chain of Cholinesterase (P06276 whole entry): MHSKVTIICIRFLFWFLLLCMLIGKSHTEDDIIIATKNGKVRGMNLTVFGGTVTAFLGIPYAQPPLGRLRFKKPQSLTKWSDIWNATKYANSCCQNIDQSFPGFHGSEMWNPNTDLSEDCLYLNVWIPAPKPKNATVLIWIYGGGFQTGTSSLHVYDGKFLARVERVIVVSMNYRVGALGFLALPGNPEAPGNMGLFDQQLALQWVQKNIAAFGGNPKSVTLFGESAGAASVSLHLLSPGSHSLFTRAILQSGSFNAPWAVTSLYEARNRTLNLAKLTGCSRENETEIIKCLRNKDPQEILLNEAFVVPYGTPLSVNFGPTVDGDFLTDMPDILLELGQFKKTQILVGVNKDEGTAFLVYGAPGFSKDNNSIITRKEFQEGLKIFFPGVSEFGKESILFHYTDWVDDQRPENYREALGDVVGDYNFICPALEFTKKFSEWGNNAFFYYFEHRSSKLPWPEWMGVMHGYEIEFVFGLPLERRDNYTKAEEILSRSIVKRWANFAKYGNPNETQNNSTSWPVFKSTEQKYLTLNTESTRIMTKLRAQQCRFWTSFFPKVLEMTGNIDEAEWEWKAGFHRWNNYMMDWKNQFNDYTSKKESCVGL

On to `Nc1c2c(nc3ccccc13)-c1ccc(Cl)cc1C2` [8-chloro-10H-indeno[1,2-b]quinolin-11-amine], for which the midpoint of inhibition in assay [1], the IC50, lay at 5.4 µM.
Take `Nc1c2c(nc3cc(F)ccc13)-c1ccccc1C2` [3-fluoro-10H-indeno[1,2-b]quinolin-11-amine]: the values for the IC50 in assay [1] and in assay [2] were 1.2 µM and 5.7 µM, respectively.
For the compound `Nc1c2c(nc3ccccc13)-c1ccccc1C2`, the Ki (as a rule, a measure of affinity in units of concentration, obtained from inhibition or displacement) in assay [1] came out at 0.21 µM. Besides, in assay [2], the IC50 (as a rule, the concentration at which inhibition is half-maximal) was 4.7 µM.
`COc1ccc2c(c1)-c1nc3ccccc3c(N)c1C2` [7-methoxy-10H-indeno[1,2-b]quinolin-11-amine] registered a half-maximal inhibitory concentration (IC50) in assay [1] of 4.3 µM.
For `COc1cccc2c1Cc1c-2nc2ccccc2c1N` [9-methoxy-10H-indeno[1,2-b]quinolin-11-amine], the IC50 in assay [1] amounted to 1.6 µM; in assay [2] it was 3 µM.
As for `Nc1ccc2nc3c(c(N)c2c1)Cc1ccccc1-3` [11H-Indeno-[1,2-b]-quinolin-8,10-diamine], the midpoint of inhibition in assay [1], the IC50, lay at 5.9 µM.
Still for that read-out and setting: for `COc1ccc2c(c1)Cc1c-2nc2ccccc2c1N` [8-methoxy-10H-indeno[1,2-b]quinolin-11-amine] the value was 6.5 µM.
Turning to `Nc1c2c(nc3ccc([N+](=O)[O-])cc13)-c1ccccc1C2` [2-nitro-10H-indeno[1,2-b]quinolin-11-amine], in assay [1], the IC50 is above 100 µM.
In the case of `c1ccc(CNc2c3c(nc4ccccc24)-c2ccccc2C3)cc1` [N-benzyl-10H-indeno[1,2-b]quinolin-11-amine], the IC50 in assay [1] came to 7.1 µM; in assay [2], 0.5 µM. In assay [1], this compound displayed an inhibition constant Ki of 7.5 µM.
The compound `Cc1cccc2c1Cc1c-2nc2ccccc2c1N` [9-methyl-10H-indeno[1,2-b]quinolin-11-amine] had an IC50 in assay [1] of 3.9 µM.
Still for that read-out and setting: with `Nc1c2c(nc3cc(Cl)ccc13)-c1ccccc1C2` [3-chloro-10H-indeno[1,2-b]quinolin-11-amine] the figure was 6.5 µM.
In assay [1], `Cc1ccc2c(c1)-c1nc3ccccc3c(N)c1C2` [7-methyl-10H-indeno[1,2-b]quinolin-11-amine] registered an IC50 of 4.6 µM.
As for `CNc1c2c(nc3ccccc13)-c1ccccc1C2` [N-methyl-10H-indeno[1,2-b]quinolin-11-amine], the IC50 in assay [1] is 1.3 µM; in assay [2], 1.6 µM.
For `Nc1ccc2c(N)c3c(nc2c1)-c1ccccc1C3` [11H-Indeno-[1,2-b]-quinolin-7,10-diamine], the IC50 in assay [1] stood at 29 µM.
Regarding `Nc1c2c(nc3ccccc13)-c1ccc(F)cc1C2` [8-fluoro-10H-indeno[1,2-b]quinolin-11-amine], the IC50 in assay [1] was 0.43 µM; in assay [2], 7.1 µM.
Compound `CCCCCCCNc1c2c(nc3ccccc13)-c1ccccc1C2` [N-Heptyl-N-11H-indeno-[1,2-b]-quinolin-10-yl)-amine] had an IC50 in assay [1] of 4.3 µM.
On the same count and under the same terms, for `Nc1c2c(nc3cc([N+](=O)[O-])ccc13)-c1ccccc1C2` [3-nitro-10H-indeno[1,2-b]quinolin-11-amine] the value was 67.5 µM.
